Reference: patent US20250034135A1, “ANTI-APOPTOTIC PROTEIN BCL-2 INHIBITOR, PHARMACEUTICAL COMPOSITION AND USES THEREOF” (HANGZHOU HEALZEN THERAPEUTICS CO., LTD., priority 2021, published 2025)

Molecular target: BCL2 (Homo sapiens (Human), UniProt P10415)
Test: Molecular level activity test of anti-apoptotic protein BCL2 (HTRF, binding to Bim peptide)
Conditions: HTRF, binding of BCL2 to Bim peptide; read-out: BCL2 nM (inhibitory activity, IC50)
Description: The detection of the binding ability between anti-apoptotic protein BCL2 and pro-apoptotic protein Bim was performed using Homogeneous Time-Resolved Fluorescence technology. The reaction of this method occurred in a white shallow 384-well plate, with a total reaction volume of 10 μL. Specifically, it included 2 μL of the compound to be tested (2% DMSO), 4 μL His-tagged recombinant protein, and 4 μL Biotin-tagged BIM protein peptide. After 1 hour of reaction, 5 μL of each Anti-His and streptavidin-tagged XL665 antibody diluents diluted with a detection buffer were added. After incubating at room temperature for 4 hours, the values were read using the Envision multifunctional microplate reader to detect the effect of the compound to be tested on the binding ability of BCL2 to Bim protein peptides.

Sequence of BCL2 (P10415 whole entry): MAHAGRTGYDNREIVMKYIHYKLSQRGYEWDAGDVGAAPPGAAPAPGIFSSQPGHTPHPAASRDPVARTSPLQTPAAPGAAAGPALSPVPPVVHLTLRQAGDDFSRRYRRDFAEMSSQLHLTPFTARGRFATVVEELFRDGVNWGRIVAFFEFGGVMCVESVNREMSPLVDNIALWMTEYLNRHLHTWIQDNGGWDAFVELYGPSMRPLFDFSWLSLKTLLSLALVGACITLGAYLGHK

Row | Compound | IC50 [nM]
1 | COc1ccc(CN2CCN(C3CC4(C3)CN(c3cc(Oc5cnc6[nH]ccc6c5)c(C(=O)NS(=O)(=O)c5cc([N+](=O)[O-])c(NCC6(F)CCN(C(C)C)CC6)c6[nH]cnc56)cn3)C4)C(c3ccccc3C(C)C)C2)cc1 (stereo not drawn) [compound 070, 4-((1H-pyrrolo[2,3-b]pyrid-5-yl)oxy)-N-((7-(((4-fluoro-1-isopropylpiperid-4-yl)methyl)amino)-6-nitro-1H-benzo[d]imidazol-4-yl)sulfonyl)-6-(6-(2-(2-isopropylphenyl)-4-(4-methoxybenzyl)piperazin-1-yl)-2-azaspiro[3.3]hept-2-yl) nicotinamide] | < 10
2 | COc1ccc(CN2C[C@@H](c3ccccc3C(C)C)N(C3CC4(CCN(c5cc(Oc6cnc7[nH]ccc7c6)c(C(=O)NS(=O)(=O)c6ccc(NCC7(F)CCOCC7)c([N+](=O)[O-])c6)cc5F)CC4)C3)C[C@H]2C)cc1 [compound 155, 2-((1H-pyrrolo[2,3-b]pyrid-5-yl)oxy)-5-fluoro-N-((4-(((4-fluorotetrahydro-2H-pyran-4-yl)methyl)amino)-3-nitrophenyl)sulfonyl)-4-(2-((2R,5R)-2-(2-isopropylphenyl)-4-(4-methoxybenzyl)-5-methylpiperazin-1-yl)-7-azaspiro[3.5]non-7-yl)benzamide] | < 10
3 | CC(C)c1ccccc1[C@@H]1CCCN1C1CC2(CCN(c3cc(Oc4cnc5[nH]ccc5c4)c(C(=O)NS(=O)(=O)c4cc([N+](=O)[O-])c(NC[C@H]5CC[C@](C)(O)CC5)c5c4OCCO5)cc3F)CC2)C1 [compound 099, 2-((1H-pyrrolo[2,3-b]pyrid-5-yl)oxy)-5-fluoro-N-((8-((((1r, 4r)-4-hydroxy-4-methylcyclohexyl)methyl)amino)-7-nitro-2,3-dihydrobenzo[b][1,4]dioxan-5-yl)sulfonyl)-4-(2-((S)-2-(2-isopropylphenyl)pyrrolidin-1-yl)-7-azaspiro[3.5]non-7-yl)benzamide] | < 10
4 | COc1ccc(CN2CCN(C3CC4(C3)CN(c3cc(Oc5cnc6[nH]ccc6c5)c(C(=O)NS(=O)(=O)c5cc([N+](=O)[O-])c(NC[C@H]6CC[C@](C)(O)CC6)c6[nH]cnc56)cc3F)C4)C(c3ccccc3C(C)C)C2)cc1 (stereo partly drawn) [compound 072, 2-((1H-pyrrolo[2,3-b]pyrid-5-yl)oxy)-5-fluoro-N-((7-((((1r,4r)-4-hydroxy-4-methylcyclohexyl)methyl)amino)-6-nitro-1H-benzo[d]imidazol-4-yl)sulfonyl)-4-(6-(2-(2-isopropylphenyl)-4-(4-methoxybenzyl)piperazin-1-yl)-2-azaspiro[3.3]hept-2-yl)benzamide] | < 10
5 | CC(C)c1ccccc1C1CN(C(C)C)CCN1C1CC2(CCN(c3ccc(C(=O)NS(=O)(=O)c4cc([N+](=O)[O-])c(NC[C@H]5CC[C@](C)(O)CC5)c5[nH]cnc45)c(Oc4cnc5[nH]ccc5c4)c3)CC2)C1 (stereo partly drawn) [compound 041, 2-((1H-pyrrolo[2,3-b]pyrid-5-yl)oxy)-N-((7-((((1r,4r)-4-hydroxy-4-methylcyclohexyl)methyl)amino)-6-nitro-1H-benzo[d]imidazol-4-yl)sulfonyl)-4-(2-(4-isopropyl-2-(2-isopropylphenyl)piperazin-1-yl)-7-azaspiro[3.5]non-7-yl)benzamide] | < 10
6 | CC(C)c1ccccc1[C@@H]1CCCN1C1CC2(CCN(c3cc(Oc4cnc5[nH]ccc5c4)c(C(=O)NS(=O)(=O)c4cc([N+](=O)[O-])c(NC[C@H]5CC[C@](C)(O)CC5)c5c4ncn5C)cn3)CC2)C1 [compound 035, 4-((1H-pyrrolo[2,3-b]pyrid-5-yl)oxy)-N-((7-((((1r,4r)-4-hydroxy-4-methylcyclohexyl)methyl)amino)-1-methyl-6-nitro-1H-benzo[d]imidazol-4-yl)sulfonyl)-6-(2-((S)-2-(2-isopropylphenyl)pyrrolidin-1-yl)-7-azaspiro[3.5]non-7-yl) nicotinamide] | < 10
7 | COc1cc(CN2CCN(C3CC4(CCN(c5cc(Oc6cnc7[nH]ccc7c6)c(C(=O)NS(=O)(=O)c6ccc(NC[C@H]7CC[C@](C)(O)CC7)c([N+](=O)[O-])c6)cc5F)CC4)C3)[C@H](c3ccccc3C(C)C)C2)ccc1C1CC1 [compound 220, 2-((1H-pyrrolo[2,3-b]pyrid-5-yl)oxy)-4-(2-((R)-4-(4-cyclopropyl-3-methoxybenzyl)-2-(2-isopropylphenyl)piperazin-1-yl)-7-azaspiro[3.5]non-7-yl)-5-fluoro-N-((4-((((1r, 4r)-4-hydroxy-4-methylcyclohexyl)methyl)amino)-3-nitrophenyl)sulfonyl)benzamide] | < 10

Other lines, results leading:

Row | IC50 [nM] | Compound
8 | < 10 | CC(C)c1ccccc1[C@@H]1CN(Cc2ccc(C3CC3)cc2)CCN1C1CC2(CCN(c3ccc(C(=O)NS(=O)(=O)c4cc([N+](=O)[O-])c(NCC5(F)CCOCC5)c5c4OCO5)c(Oc4cnc5[nH]ccc5c4)c3)CC2)C1 [compound 172, (R)-2-((1H-pyrrolo[2,3-b]pyrid-5-yl)oxy)-4-(2-(4-(4-cyclopropylbenzyl)-2-(2-isopropylphenyl)piperazin-1-yl)-7-azaspiro[3.5]non-7-yl)-N-((7-(((4-fluorotetrahydro-2H-pyran-4-yl)methyl)amino)-6-nitrobenzo[d][1,3]dioxocyclopent-4-yl)sulfonyl)benzamide]
9 | < 10 | CC(C)c1ccccc1[C@@H]1CN(Cc2ccc(C#N)cc2)CCN1C1CC2(CCN(c3cc(Oc4cnc5[nH]ccc5c4)c(C(=O)NS(=O)(=O)c4ccc(NCC5(F)CCOCC5)c([N+](=O)[O-])c4)cc3F)CC2)C1 [compound 199, (R)-2-((1H-pyrrolo[2,3-b]pyrid-5-yl)oxy)-4-(2-(4-(4-cyanobenzyl)-2-(2-isopropylphenyl)piperazin-1-yl)-7-azaspiro[3.5]non-7-yl)-5-fluoro-N-((4-(((4-fluorotetrahydro-2H-pyran-4-yl)methyl)amino)-3-nitrophenyl)sulfonyl)benzamide]
10 | < 10 | CC(C)c1ccccc1[C@@H]1CN(Cc2ccncc2)CCN1C1CC2(CCN(c3cc(Oc4cnc5[nH]ccc5c4)c(C(=O)NS(=O)(=O)c4ccc(NCC5(F)CCOCC5)c([N+](=O)[O-])c4)cc3F)CC2)C1 [compound 211, (R)-2-((1H-pyrrolo[2,3-b]pyrid-5-yl)oxy)-5-fluoro-N-((4-(((4-fluorotetrahydro-2H-pyran-4-yl)methyl)amino)-3-nitrophenyl)sulfonyl)-4-(2-(2-(2-isopropylphenyl)-4-(pyrid-4-ylmethyl)piperazin-1-yl)-7-azaspiro[3.5]non-7-yl)benzamide]
11 | < 10 | COc1ccc(CN2CCN(C3CC4(CCN(c5ccc(C(=O)NS(=O)(=O)c6cc([N+](=O)[O-])c(NC[C@H]7COCCO7)c7c6OCO7)c(Oc6cnc7[nH]ccc7c6)c5)CC4)C3)[C@H](c3ccccc3C(C)C)C2)cc1 [compound 148, N-((7-((((S)-1,4-dioxan-2-yl)methyl)amino)-6-nitrobenzo[d][1,3]dioxocyclopent-4-yl)sulfonyl)-2-((1H-pyrrolo[2,3-b]pyrid-5-yl)oxy)-4-(2-((R)-2-(2-isopropylphenyl)-4-(4-methoxybenzyl)piperazin-1-yl)-7-azaspiro[3.5]non-7-yl)benzamide]
12 | < 10 | CC(C)c1ccccc1[C@@H]1CN(Cc2ccc(F)cc2)CCN1C1CC2(CCN(c3ccc(C(=O)NS(=O)(=O)c4cc([N+](=O)[O-])c(NCC5(F)CCOCC5)c5c4OCO5)c(Oc4cnc5[nH]ccc5c4)c3)CC2)C1 [compound 167, (R)-2-((1H-pyrrolo[2,3-b]pyrid-5-yl)oxy)-4-(2-(4-(4-fluorobenzyl)-2-(2-isopropylphenyl)piperazin-1-yl)-7-azaspiro[3.5]non-7-yl)-N-((7-(((4-fluorotetrahydro-2H-pyran-4-yl)methyl)amino)-6-nitrobenzo[d][1,3]dioxocyclopent-4-yl)sulfonyl)benzamide]
13 | < 10 | COc1ccc(CN2CCN(C3CC4(CCN(c5cc(Oc6cnc7[nH]ccc7c6)c(C(=O)NS(=O)(=O)c6cc([N+](=O)[O-])c(NC[C@H]7COCCO7)c7c6OCO7)cn5)CC4)C3)[C@H](c3ccccc3C(C)C)C2)cc1 [compound 151, N-((7-((((S)-1,4-dioxan-2-yl)methyl)amino)-6-nitrobenzo[d][1,3]dioxocyclopent-4-yl)sulfonyl)-4-((1H-pyrrolo[2,3-b]pyrid-5-yl)ox)-6-(2-((R)-2-(2-isopropylphenyl)-4-(4-methoxybenzyl)piperazin-1-yl)-7-azaspiro[3.5]non-7-yl) nicotinamide]
14 | < 10 | COc1ccc(CN2CCN(C3CC4(CCN(c5cc(Oc6cnc7[nH]ccc7c6)c(C(=O)NS(=O)(=O)c6ccc(NCC7(F)CCOCC7)c([N+](=O)[O-])c6)cn5)CC4)C3)C(c3ccccc3C(C)C)C2)cc1 (stereo not drawn) [compound 065, 4-((1H-pyrrolo[2,3-b]pyrid-5-yl)oxy)-N-((4-(((4-fluorotetrahydro-2H-pyran-4-yl)methyl)amino)-3-nitrophenyl)sulfonyl)-6-(2-(2-(2-isopropylphenyl)-4-(4-methoxybenzyl)piperazin-1-yl)-7-azaspiro[3.5]non-7-yl) nicotinamide]
15 | < 10 | COc1ccc(CN2CCN(C3CC4(CCN(c5cc(Oc6cnc7[nH]ccc7c6)c(C(=O)NS(=O)(=O)c6cc([N+](=O)[O-])c(NCC7(F)CCOCC7)c7ocnc67)cn5)CC4)C3)[C@H](c3ccccc3C(C)C)C2)cc1 [compound 133, (R)-4-((1H-pyrrolo[2,3-b]pyridine-5-yl)oxy)-N-((7-(((4-fluorotetrahydro-2H-pyran-4-yl)methyl)amino)-6-nitrobenzo[d]oxazol-4-yl)sulfonyl)-6-(2-(2-(2-isopropylphenyl)-4-(4-methoxybenzyl)piperazin-1-yl)-7-azaspiro[3.5]non-7-yl) nicotinamide]
